According to patent US11091749B2, “Deimmunized lysostaphin and methods of use” (TRUSTEES OF DARTMOUTH COLLEGE, priority 2014, dated 2021):

Key:
[1] = tested on: S. aureus 6445; assay: MIC assay; assay type: cell-based, Staphylococcus aureus; details: biological duplicates
[2] = tested on: MRSA strain USA400; assay: Efficacy of F12 in recurrent systemic MRSA infections; assay type: in vivo, DR4 HLA transgenic mice; details: for # Treated Mice Surviving: 500 μg enzyme 1 hour later
Protocol: In a similar set of experiments, the immunogenicity and efficacy of variant F12 was compared to wild-type LST in the absence of adjuvant using DR4 HLA transgenic mice. At week 0, mice were challenged with an intraperitoneal injection of 2×10^8 MRSA strain USA400, and 1 hour later the mice were treated with 500 μg wild-type LST or 500 μg variant F12, given as a single bolus subcutaneous injection. Subsequently, mice were challenged weekly with an intraperitoneal injection of 1×10^9 MRSA strain USA400, and treated as above. Antibody titers were measured weekly beginning at week 2. […] Variant F12 rescued all mice from four recurrent, systemic, MRSA infections (Table 24). The substantially lower antibody titers elicited by variant F12 indicate that this variant is […] than wild-type LST.

[3] = tested on: MRSA strain USA400; assay: S. aureus recurrent bacteremia model, in vivo efficacy; set-up: species or system DR4 mice; details: 500 μg i.v.
Protocol: Prior to bacterial challenge, the immune systems of DR4 mice (N=3 per group) were primed 3-times with weekly subcutaneous injections of 100 μg LST^WT or Lib5 variant in sterile phosphate buffered saline (PBS: 2.7 mM KCl, 1.5 mM KH2PO4, 8.9 mM Na2HPO4, 136.9 mM NaCl, pH 7.4). These immunizations and boosts contained no adjuvant. Anti-LST antibody titers were determined as described above. For the first cycle of infection and treatment, mice were challenged with intraperitoneal administration of 2×10^8 CFU Staphylococcus aureus strain USA400 in a 3% suspension of porcine mucin, and one hour later were treated by intravenous tail vein administration of 500 μg of LST^WT or Lib5 variant in sterile PBS. Mice that were rescued by the enzyme treatment underwent subsequent infection and treatment cycles at weekly intervals. To compensate for development of innate murine antibacterial immunity following the first bacterial exposure, mice were challenged with 1×10^9 CFU USA400 in the second and third cycles, but the treatments remained at 500 μg of the appropriate protein. As a control to verify the lethal bacterial dose in each cycle, one mouse was given a sham treatment of PBS.
Using an S. aureus recurrent bacteremia model, the extent to which LST immunogenicity impacted in vivo efficacy was subsequently evaluated. […]

[4] = tested on: pooled splenocytes; assay: Transgenic DR4 murine immunogenicity study (memory response, splenocyte proliferation); assay type: in vivo; details: wild-type LST primed mice, 100 μg rechallenge
Protocol: Twelve female 6-8 week old DR4 transgenic mice (Abb Knockout/Transgenic HLA-DR4; B6.129S2-H2-Ab1tm1GruTg(HLA-DRA/H2-Ea,HLA-DRB1*0401/H2-Eb)1Kito; Taconic Farms, Germantown, N.Y.) were divided into four groups of three each and immunized with 50 μl subcutaneous injections of wild-type LST using one of the following four schemes: (i) initial immunization with 100 μg enzyme in CFA, followed by 100 μg boosts in incomplete Freund's adjuvant (IFA) on days 14 and 28; (ii) initial immunization with 20 μg enzyme in CFA, followed by 20 μg boosts in IFA on days 14 and 28; (iii) initial immunization with 100 μg enzyme in PBS buffer, followed by 100 μg boosts in PBS buffer on days 7, 14, 21 and 28; (iv) initial immunization with 20 μg enzyme in PBS buffer, followed by 20 μg boosts in PBS buffer on days 7, 14, 21 and 28. Serum IgG antibody titers against wild-type LST were measured on days 13, 20, 27, 34, and 62. […] Mice were housed without further manipulation until week 23 of the study, at which time serum IgG antibody titers were again measured and mice were divided into two experimental arms having equivalent average antibody titers. Note that during the week 9 to week 23 recovery period, two mice (the lowest titer 100 μg no adjuvant and one of the high titer 100 μg adjuvant) began suffering hair loss, weight loss, and reduced mobility and were sacrificed as per the IACUC approved protocol. […]

[5] = tested on: S. aureus strain SA113; assay: MIC activity relative to LST^WT; assay type: cell-based, Staphylococcus aureus; details: % fold dilution relative to wild type
Protocol: LST and its derivatives were secreted from P. pastoris. Briefly, recombinant Pichia strains were cultured in a 2.5 L bioreactor (Applicon Biotechnology), and the proteins were captured from the supernatant by polyethylene glycol-6000 (PEG-6000) precipitation and purified to homogeneity by SP SEPHAROSE F.F. cation exchange chromatography. Endotoxin was removed from the protein preparation by TRITON-X114 extraction (Liu, et al. (1997) Clin. Biochem. 30:455-63). Protein expression levels were estimated by densitometry analysis of SDS-PAGE gels.

Wild-Type: wild-type lysostaphin (SEQ ID NO:49) produced in P. pastoris; aglycosylated Ser126Pro backbone in the design studies [reference compound]
MIC Strain 6445 [1]: 0.03 µg/mL
recurrent systemic MRSA infections from which mice were rescued ([2]; 500 μg s.c., weekly challenges, no adjuvant): four
# Treated Mice Surviving ([2]; Week 0, 2×10^8 MRSA USA400 i.p., no adjuvant): 7
# Treated Mice Surviving ([2]; Week 1, 1×10^9 MRSA USA400 i.p.): 6
# Treated Mice Surviving ([2]; Week 2, 1×10^9 MRSA USA400 i.p.): 5
# Treated Mice Surviving ([2]; Week 3, 1×10^9 MRSA USA400 i.p.): 4
# Treated Mice Surviving ([2]; Week 4, 1×10^9 MRSA USA400 i.p.): 0
rescue from infection ([3]; first cycle, 2×10^8 CFU i.p.): rescued
rescue from infection ([3]; second cycle, 10^9 CFU): failed to rescue any of the three treated mice
stimulation index [4]: 1.8 fold
Activity (% WT) [5]: 100 % WT
